The species entered for data set [1] is Mus musculus. Kind of data set: Toxicity in KK-Ay diabetic mouse model assessed as effect on average 24 hrs food consumption by measured food consumption at 0.4 mg added daily to normal chow pellets for 10 weeks (reference value: 4.7 +/- 0.2 g). The conditions noted are these: in vivo, po. Type of data set: organism-based.
Data set [2] is filed under the species Mus musculus. Kind of data set: Effect on GYS2 mRNA expression levels in adipose tissue of KK-Ay diabetic mouse model at 0.4 to 1.1 mg added daily to normal chow pellets for 10 weeks by qRT-PCR analysis. Type of data set: functional, organism-based. A general note: In qPCR the cycle at which signal appears reflects the starting amount.
Data set [3] is filed under the species Mus musculus. The experiment in a line: Effect on Sirt1 mRNA expression levels in muscle of KK-Ay diabetic mouse model at 0.4 to 1.1 mg added daily to normal chow pellets for 10 weeks by qRT-PCR analysis. Type of data set: functional, organism-based.
Data set [4] is filed under the species Mus musculus. The experiment in a line: Effect on PKCdelta mRNA expression levels in muscle of KK-Ay diabetic mouse model at 0.4 to 1.1 mg added daily to normal chow pellets for 10 weeks by qRT-PCR analysis. Type of data set: functional, organism-based.
Data set [5] is filed under the species Mus musculus. Kind of data set: Effect on GYS2 mRNA expression levels in muscle of KK-Ay diabetic mouse model at 0.4 to 1.1 mg added daily to normal chow pellets for 10 weeks by qRT-PCR analysis. It is filed as functional, organism-based.

Calls of active or inactive are those of the source. No cut-off for these calls is given here.

For the compound `C[C@@]12CCc3occc3[C@H]1CC[C@@]13C[C@H](CC[C@H]12)[C@@](O)(CO)C3`, the Activity in the data set filed under Mus musculus [1] came out at 5.4 g. The outcome in the data set filed under Mus musculus [2], in the data set filed under Mus musculus [3], in the data set listed under Mus musculus [4] and in the data set filed under Mus musculus [5] was inactive.

The values are drawn from ChEMBL document CHEMBL4190297, “Cafestol, a Bioactive Substance in Coffee, Has Antidiabetic Properties in KKAy Mice” (J Nat Prod, 2017).
